For 13 molecules, IC50 results are on record in patent publication US20230406885A1, “CYCLIC PEPTIDES FOR TRAPPING INTERLEUKIN-1 BETA” (MERCK SHARP & DOHME LLC, priority 2022, published 2023).

*1 amine or outer side, *2 acyl side, *3 side chain or, on linkers, in order; H or OH if unused. Where a SMILES comes first, the peptide text is derived from it. [ ]: non-standard residue; d: D form. Trp(4-Cl)(βS-Me) = C[C@@H](c1c[nH]c2cccc(Cl)c12)[C@H](N)C(=O)O; Bip(4'-COOH) = N[C@@H](Cc1ccc(-c2ccc(C(=O)O)cc2)cc1)C(=O)O; Phe(4-COOH) = N[C@@H](Cc1ccc(C(=O)O)cc1)C(=O)O; Pro(4R-NH2) = N[C@H]1CN[C@H](C(=O)O)C1; X7 = O=C([C@H](CCN1CCOCC1)N[*:1])[*:2]; AEF = NCCOc1ccc(C[C@H](N)C(=O)O)cc1; hTyr = N[C@@H](CCc1ccc(O)cc1)C(=O)O; hPhe = N[C@@H](CCc1ccccc1)C(=O)O; Dap(Me2) = CN(C)C[C@H](N)C(=O)O; dDab = NCC[C@@H](N)C(=O)O; hSer = N[C@@H](CCO)C(=O)O; dNMeA = CN[C@H](C)C(=O)O; Dab = NCC[C@H](N)C(=O)O; Dap = NC[C@H](N)C(=O)O

The target in this assay is T1, Recombinant human IL-1β (Homo sapiens, UniProt P01584).
T1 construct: purchased BioLegend 579404
The assay can be described thus: IL-6 assay in MRC5 cells: inhibition of IL-1β induced IL-6 secretion (AlphaLISA). Format: cell-based. To be noted: inhibition of IL-1β induced IL-6 secretion in MRC5 cells; read-out: MRC5 IC50. The method in brief:
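IL-1β at 2×EC80 in seeding medium (EMEM, 0.025% BSA) preincubated 1 h at ambient temperature with compound, then 3000 MRC5 cells/well added and incubated overnight at 37 °C, 5% CO2. IL-6 in conditioned medium quantified by AlphaLISA; IC50 from 4-parameter logistic fit.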
(In general: In Alpha technology, singlet oxygen from a donor bead excites a nearby acceptor bead.)

T1 sequence (P01584 117-269): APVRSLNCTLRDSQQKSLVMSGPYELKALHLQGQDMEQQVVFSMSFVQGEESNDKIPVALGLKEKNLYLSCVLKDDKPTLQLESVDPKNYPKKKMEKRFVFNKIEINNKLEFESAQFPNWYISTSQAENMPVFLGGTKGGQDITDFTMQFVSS

As usually defined, the IC50 is the concentration at which inhibition is half-maximal. In the case of `CC(=O)NCCOc1ccc(C[C@@H]2NC(=O)[C@H](CCc3ccc(O)cc3)NC(=O)[C@@H](CCN)NC(=O)[C@H](CO)NC(=O)[C@H](CCCCN)NC(=O)[C@H](Cc3ccc(-c4ccc(C(=O)O)cc4)cc3)NC(=O)CNC(=O)[C@@H](C)N(C)C(=O)[C@H](CC(=O)O)NC(=O)[C@H]([C@@H](C)c3c[nH]c4cccc(Cl)c34)NC(=O)[C@@H]3C[C@@H](N)CN3C(=O)CNC(=O)[C@H](Cc3ccc(C(=O)O)cc3)NC(=O)[C@H](Cc3c[nH]c4ccccc34)NC2=O)cc1` [Example 139] (cyclo([AEF](Ac)W[Phe(4-COOH)]G[Pro(4R-NH2)][Trp(4-Cl)(βS-Me)]D[dNMeA]G[Bip(4'-COOH)]KS[dDab][hTyr])), the half-maximal inhibitory concentration (IC50) amounted to 0.133 nM.

On to `CC(=O)NCCOc1ccc(C[C@@H]2NC(=O)CNC(=O)[C@@H](C)NC(=O)[C@H](CCN3CCOCC3)NC(=O)[C@H](Cc3c[nH]c4ccccc34)NC(=O)[C@H](Cc3ccc(-c4ccc(C(=O)O)cc4)cc3)NC(=O)CNC(=O)[C@@H](C)N(C)C(=O)[C@H](CC(=O)O)NC(=O)[C@H]([C@@H](C)c3c[nH]c4cccc(Cl)c34)NC(=O)[C@@H]3C[C@@H](N)CN3C(=O)CNC(=O)[C@H](Cc3ccc(C(=O)O)cc3)NC(=O)[C@H](Cc3c[nH]c4ccccc34)NC2=O)cc1` [Example 140] (cyclo([AEF](Ac)W[Phe(4-COOH)]G[Pro(4R-NH2)][Trp(4-Cl)(βS-Me)]D[dNMeA]G[Bip(4'-COOH)]W[X7][dA]G)), for which the half-inhibitory concentration (IC50) stood at 0.515 nM.

Take `CC(=O)NCCOc1ccc(C[C@@H]2NC(=O)[C@H](CCc3ccc(O)cc3)NC(=O)[C@@H](C)NC(=O)[C@H](CCN3CCOCC3)NC(=O)[C@H](Cc3c[nH]c4ccccc34)NC(=O)[C@H](Cc3ccc(-c4ccc(C(=O)O)cc4)cc3)NC(=O)CNC(=O)[C@@H](C)N(C)C(=O)[C@H](CC(=O)O)NC(=O)[C@H]([C@@H](C)c3c[nH]c4cccc(Cl)c34)NC(=O)[C@@H]3C[C@@H](N)CN3C(=O)CNC(=O)[C@H](Cc3ccc(C(=O)O)cc3)NC(=O)[C@H](Cc3c[nH]c4ccccc34)NC2=O)cc1` [Example 141] (cyclo([AEF](Ac)W[Phe(4-COOH)]G[Pro(4R-NH2)][Trp(4-Cl)(βS-Me)]D[dNMeA]G[Bip(4'-COOH)]W[X7][dA][hTyr])): the 50% inhibitory concentration (IC50) was determined as 0.177 nM.

Consider `CC(=O)NCCOc1ccc(C[C@@H]2NC(=O)[C@H](CCc3ccccc3)NC(=O)[C@@H](C)NC(=O)[C@H](CCN)NC(=O)[C@H](Cc3c[nH]c4ccccc34)NC(=O)[C@H](Cc3ccc(-c4ccc(C(=O)O)cc4)cc3)NC(=O)CNC(=O)[C@@H](C)N(C)C(=O)[C@H](CC(=O)O)NC(=O)[C@H]([C@@H](C)c3c[nH]c4cccc(Cl)c34)NC(=O)[C@@H]3C[C@@H](N)CN3C(=O)CNC(=O)[C@H](Cc3ccc(C(=O)O)cc3)NC(=O)[C@H](Cc3c[nH]c4ccccc34)NC2=O)cc1` [Example 142] (cyclo([AEF](Ac)W[Phe(4-COOH)]G[Pro(4R-NH2)][Trp(4-Cl)(βS-Me)]D[dNMeA]G[Bip(4'-COOH)]W[Dab][dA][hPhe])), for which the 50% inhibitory concentration (IC50) is 0.159 nM.

As to `CC(=O)NCCOc1ccc(C[C@@H]2NC(=O)[C@H](CCc3ccc(O)cc3)NC(=O)[C@@H](C)NC(=O)[C@H](CCN)NC(=O)[C@H](Cc3c[nH]c4ccccc34)NC(=O)[C@H](Cc3ccc(-c4ccc(C(=O)O)cc4)cc3)NC(=O)CNC(=O)[C@@H](C)N(C)C(=O)[C@H](CC(=O)O)NC(=O)[C@H]([C@@H](C)c3c[nH]c4cccc(Cl)c34)NC(=O)[C@@H]3C[C@@H](N)CN3C(=O)CNC(=O)[C@H](Cc3ccc(C(=O)O)cc3)NC(=O)[C@H](Cc3c[nH]c4ccccc34)NC2=O)cc1` [Example 143] (cyclo([AEF](Ac)W[Phe(4-COOH)]G[Pro(4R-NH2)][Trp(4-Cl)(βS-Me)]D[dNMeA]G[Bip(4'-COOH)]W[Dab][dA][hTyr])), the concentration for half-maximal inhibition (IC50) came to 0.23 nM.

For `CC(=O)NCCOc1ccc(C[C@@H]2NC(=O)[C@H](CCc3ccccc3)NC(=O)[C@@H](C)NC(=O)[C@H](CN)NC(=O)[C@H](Cc3c[nH]c4ccccc34)NC(=O)[C@H](Cc3ccc(-c4ccc(C(=O)O)cc4)cc3)NC(=O)CNC(=O)[C@@H](C)N(C)C(=O)[C@H](CC(=O)O)NC(=O)[C@H]([C@@H](C)c3c[nH]c4cccc(Cl)c34)NC(=O)[C@@H]3C[C@@H](N)CN3C(=O)CNC(=O)[C@H](Cc3ccc(C(=O)O)cc3)NC(=O)[C@H](Cc3c[nH]c4ccccc34)NC2=O)cc1` [Example 144] (cyclo([AEF](Ac)W[Phe(4-COOH)]G[Pro(4R-NH2)][Trp(4-Cl)(βS-Me)]D[dNMeA]G[Bip(4'-COOH)]W[Dap][dA][hPhe])), the IC50 came out at 0.0749 nM.

Regarding `CC(=O)NCCOc1ccc(C[C@@H]2NC(=O)[C@H](CCc3ccc(O)cc3)NC(=O)[C@@H](C)NC(=O)[C@H](CN)NC(=O)[C@H](Cc3c[nH]c4ccccc34)NC(=O)[C@H](Cc3ccc(-c4ccc(C(=O)O)cc4)cc3)NC(=O)CNC(=O)[C@@H](C)N(C)C(=O)[C@H](CC(=O)O)NC(=O)[C@H]([C@@H](C)c3c[nH]c4cccc(Cl)c34)NC(=O)[C@@H]3C[C@@H](N)CN3C(=O)CNC(=O)[C@H](Cc3ccc(C(=O)O)cc3)NC(=O)[C@H](Cc3c[nH]c4ccccc34)NC2=O)cc1` [Example 145] (cyclo([AEF](Ac)W[Phe(4-COOH)]G[Pro(4R-NH2)][Trp(4-Cl)(βS-Me)]D[dNMeA]G[Bip(4'-COOH)]W[Dap][dA][hTyr])), the IC50 came to 0.0748 nM.

Regarding `CC(=O)NCCOc1ccc(C[C@@H]2NC(=O)[C@H](CCc3ccc(O)cc3)NC(=O)[C@@H](C)NC(=O)[C@H](CN(C)C)NC(=O)[C@H](Cc3c[nH]c4ccccc34)NC(=O)[C@H](Cc3ccc(-c4ccc(C(=O)O)cc4)cc3)NC(=O)CNC(=O)[C@@H](C)N(C)C(=O)[C@H](CC(=O)O)NC(=O)[C@H]([C@@H](C)c3c[nH]c4cccc(Cl)c34)NC(=O)[C@@H]3C[C@@H](N)CN3C(=O)CNC(=O)[C@H](Cc3ccc(C(=O)O)cc3)NC(=O)[C@H](Cc3c[nH]c4ccccc34)NC2=O)cc1` [Example 146] (cyclo([AEF](Ac)W[Phe(4-COOH)]G[Pro(4R-NH2)][Trp(4-Cl)(βS-Me)]D[dNMeA]G[Bip(4'-COOH)]W[Dap(Me2)][dA][hTyr])), the half-maximal inhibitory concentration (IC50) worked out at 0.114 nM.

Consider `COCC[C@@H]1NC(=O)[C@H](Cc2c[nH]c3ccccc23)NC(=O)[C@H](Cc2ccc(-c3ccc(C(=O)O)cc3)cc2)NC(=O)CNC(=O)[C@@H](C)N(C)C(=O)[C@H](CC(=O)O)NC(=O)[C@H]([C@@H](C)c2c[nH]c3cccc(Cl)c23)NC(=O)[C@@H]2C[C@@H](N)CN2C(=O)CNC(=O)[C@H](Cc2ccc(C(=O)O)cc2)NC(=O)[C@H](Cc2c[nH]c3ccccc23)NC(=O)[C@H](Cc2ccc(OCCNC(C)=O)cc2)NC(=O)[C@H](CCc2ccc(O)cc2)NC(=O)[C@@H](C)NC1=O` [Example 147] (cyclo([AEF](Ac)W[Phe(4-COOH)]G[Pro(4R-NH2)][Trp(4-Cl)(βS-Me)]D[dNMeA]G[Bip(4'-COOH)]W[hSer](Me)[dA][hTyr])), for which the IC50 was 0.0926 nM.

`CC(=O)NCCOc1ccc(C[C@@H]2NC(=O)[C@H](CCc3ccc(O)cc3)NC(=O)[C@@H](C)NC(=O)[C@H](CC(C)C)NC(=O)[C@H](Cc3c[nH]c4ccccc34)NC(=O)[C@H](Cc3ccc(-c4ccc(C(=O)O)cc4)cc3)NC(=O)CNC(=O)[C@@H](C)N(C)C(=O)[C@H](CC(=O)O)NC(=O)[C@H]([C@@H](C)c3c[nH]c4cccc(Cl)c34)NC(=O)[C@@H]3C[C@@H](N)CN3C(=O)CNC(=O)[C@H](Cc3ccc(C(=O)O)cc3)NC(=O)[C@H](Cc3c[nH]c4ccccc34)NC2=O)cc1` [Example 148] (cyclo([AEF](Ac)W[Phe(4-COOH)]G[Pro(4R-NH2)][Trp(4-Cl)(βS-Me)]D[dNMeA]G[Bip(4'-COOH)]WL[dA][hTyr])): the IC50 amounted to 0.0483 nM.

For `CC(=O)NCCOc1ccc(C[C@@H]2NC(=O)[C@H](CCc3ccc(O)cc3)NC(=O)[C@@H](CCN)NC(=O)[C@H](CC(C)C)NC(=O)[C@H](Cc3c[nH]c4ccccc34)NC(=O)[C@H](Cc3ccc(-c4ccc(C(=O)O)cc4)cc3)NC(=O)CNC(=O)[C@@H](C)N(C)C(=O)[C@H](CC(=O)O)NC(=O)[C@H]([C@@H](C)c3c[nH]c4cccc(Cl)c34)NC(=O)[C@@H]3C[C@@H](N)CN3C(=O)CNC(=O)[C@H](Cc3ccc(C(=O)O)cc3)NC(=O)[C@H](Cc3c[nH]c4ccccc34)NC2=O)cc1` [Example 149] (cyclo([AEF](Ac)W[Phe(4-COOH)]G[Pro(4R-NH2)][Trp(4-Cl)(βS-Me)]D[dNMeA]G[Bip(4'-COOH)]WL[dDab][hTyr])), the IC50 turned out to be 0.81 nM.

Regarding `CC(=O)NCCOc1ccc(C[C@@H]2NC(=O)[C@H](CCc3ccccc3)NC(=O)[C@@H](C)NC(=O)[C@H](CO)NC(=O)[C@H](Cc3c[nH]c4ccccc34)NC(=O)[C@H](Cc3ccc(-c4ccc(C(=O)O)cc4)cc3)NC(=O)CNC(=O)[C@@H](C)N(C)C(=O)[C@H](CC(=O)O)NC(=O)[C@H]([C@@H](C)c3c[nH]c4cccc(Cl)c34)NC(=O)[C@@H]3C[C@@H](N)CN3C(=O)CNC(=O)[C@H](Cc3ccc(C(=O)O)cc3)NC(=O)[C@H](Cc3c[nH]c4ccccc34)NC2=O)cc1` [Example 150] (cyclo([AEF](Ac)W[Phe(4-COOH)]G[Pro(4R-NH2)][Trp(4-Cl)(βS-Me)]D[dNMeA]G[Bip(4'-COOH)]WS[dA][hPhe])), the IC50 turned out to be 0.0633 nM.

Consider `CC(=O)NCCOc1ccc(C[C@@H]2NC(=O)[C@H](CCc3ccc(O)cc3)NC(=O)[C@@H](C)NC(=O)[C@H](CO)NC(=O)[C@H](Cc3c[nH]c4ccccc34)NC(=O)[C@H](Cc3ccc(-c4ccc(C(=O)O)cc4)cc3)NC(=O)CNC(=O)[C@@H](C)N(C)C(=O)[C@H](CC(=O)O)NC(=O)[C@H]([C@@H](C)c3c[nH]c4cccc(Cl)c34)NC(=O)[C@@H]3C[C@@H](N)CN3C(=O)CNC(=O)[C@H](Cc3ccc(C(=O)O)cc3)NC(=O)[C@H](Cc3c[nH]c4ccccc34)NC2=O)cc1` [Example 151] (cyclo([AEF](Ac)W[Phe(4-COOH)]G[Pro(4R-NH2)][Trp(4-Cl)(βS-Me)]D[dNMeA]G[Bip(4'-COOH)]WS[dA][hTyr])), for which the IC50 was 0.0759 nM.
